In ChEMBL document CHEMBL1201862, “PubChem BioAssay data set” (2004):
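Exposure lasted 48 hours, with cells grown in 96-well plates and compounds tested at five concentrations. Abbreviation: GI50, concentration required for 50% inhibition of growth.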 Active and inactive are the calls of the source. No stated cut-off is given here; in the data, active = GI50 up to about 1.1 µM and inactive = higher.

Key:
Assay in all cases: growth of human tumour cells (NCI), 48 h
HOP-92 = tested on: HOP-92
SF-268 = tested on: SF-268
A549 = tested on: A549
HCT-15 = tested on: HCT-15
ACHN = tested on: ACHN
CCRF-CEM = tested on: CCRF-CEM
SF-295 = tested on: SF-295
MDA-MB-435 = tested on: MDA-MB-435
TK-10 = tested on: TK-10
SN12C = tested on: SN12C
SNB-19 = tested on: SNB-19
SF-539 = tested on: SF-539
NCI-H23 = tested on: NCI-H23
HOP-62 = tested on: HOP-62
K562 = tested on: K562
PC-3 = tested on: PC-3
HT-29 = tested on: HT-29
NCI/ADR-RES = tested on: NCI/ADR-RES
CAKI-1 = tested on: CAKI-1
HCC 2998 = tested on: HCC 2998

Structure (SMILES) | GI50 (HOP-92) | GI50 (SF-268) | GI50 (A549) | GI50 (HCT-15) [µM] | GI50 (ACHN) | GI50 (CCRF-CEM) | GI50 (SF-295) | GI50 (MDA-MB-435) | GI50 (TK-10) | GI50 (SN12C) | GI50 (SNB-19) | GI50 (SF-539) | GI50 (NCI-H23) | GI50 (HOP-62) | GI50 (K562) | GI50 (PC-3) | GI50 (HT-29) | GI50 (NCI/ADR-RES) | GI50 (CAKI-1) | GI50 (HCC 2998)
Cc1nc2ccc(S(=O)(=O)O)cc2c(=O)n1-c1ccc(C(=O)NN2C(=O)C(Cl)C2c2ccccc2O)cc1 (configuration not stated) | > 100 µM (inactive) | > 100 µM (inactive) | > 100 µM (inactive) | > 100 | > 100 µM (inactive) | > 100 µM (inactive) | > 100 µM (inactive) | > 100 µM (inactive) | > 100 µM (inactive) | > 100 µM (inactive) | > 100 µM (inactive) | 92.3 µM (inactive) | > 100 µM (inactive) | 53.5 µM (inactive) | > 100 µM (inactive) | > 100 µM (inactive) | > 100 µM (inactive) | > 100 µM (inactive) | > 100 µM (inactive) | 
CC1(C)N[PH]2(Nc3ccccc3O2)OC1=O |  | > 100 µM (inactive) | 32.7 µM (inactive) | 64.9 | 42.3 µM (inactive) | 41.2 µM (inactive) | 24.7 µM (inactive) | 16.4 µM (inactive) | 68.2 µM (inactive) | > 100 µM (inactive) | > 100 µM (inactive) | 66.5 µM (inactive) | 67.9 µM (inactive) | > 100 µM (inactive) | 37.9 µM (inactive) | 41.1 µM (inactive) | > 100 µM (inactive) | 49.9 µM (inactive) | 66.2 µM (inactive) | > 100 µM (inactive)
CC(=O)N1CCN(CCCCN2c3ccccc3Sc3cc(N=[N+]=[N-])ccc32)CC1 |  | 18.2 µM (inactive) | 16.1 µM (inactive) | 14.9 | 14.9 µM (inactive) | 14.5 µM (inactive) | 16.8 µM (inactive) | 15.6 µM (inactive) | 17.4 µM (inactive) | 15.6 µM (inactive) | 14.5 µM (inactive) | 17.4 µM (inactive) | 15.7 µM (inactive) | 14.3 µM (inactive) | 8.65 µM (inactive) | 7 µM (inactive) | 13.6 µM (inactive) | 12.6 µM (inactive) | 12.1 µM (inactive) | 14.5 µM (inactive)
CCOC(=O)n1[nH]c(=O)n(-c2ccccc2)c1=O |  | > 100 µM (inactive) | > 100 µM (inactive) | > 100 | > 100 µM (inactive) | > 100 µM (inactive) | > 100 µM (inactive) | > 100 µM (inactive) | > 100 µM (inactive) | > 100 µM (inactive) | > 100 µM (inactive) |  | > 100 µM (inactive) | > 100 µM (inactive) | > 100 µM (inactive) | > 100 µM (inactive) | > 100 µM (inactive) | > 100 µM (inactive) | > 100 µM (inactive) | > 100 µM (inactive)
C=C(C)C#CC(O)(C(=O)OC1CCN(C)CC1)C(C)C (configuration not stated) |  | > 100 µM (inactive) | > 100 µM (inactive) | > 100 | > 100 µM (inactive) | > 100 µM (inactive) | > 100 µM (inactive) | > 100 µM (inactive) | > 100 µM (inactive) | > 100 µM (inactive) | > 100 µM (inactive) | > 100 µM (inactive) | > 100 µM (inactive) | > 100 µM (inactive) | > 100 µM (inactive) | > 100 µM (inactive) | > 100 µM (inactive) | 29.4 µM (inactive) | > 100 µM (inactive) | > 100 µM (inactive)
O=C1CC[C@@]23CC(=O)O[C@@H]2CCCC3C1 (some centres not stated) |  | > 100 µM (inactive) | > 100 µM (inactive) | > 100 | > 100 µM (inactive) | > 100 µM (inactive) | > 100 µM (inactive) |  | > 100 µM (inactive) | > 100 µM (inactive) | > 100 µM (inactive) | > 100 µM (inactive) | > 100 µM (inactive) | > 100 µM (inactive) | > 100 µM (inactive) | > 100 µM (inactive) | > 100 µM (inactive) | > 100 µM (inactive) | > 100 µM (inactive) | > 100 µM (inactive)
C=C(Cl)C(Cl)(CCl)CCC(Br)C(C)(C)Br (configuration not stated) | > 10 µM (inactive) | > 10 µM (inactive) | > 10 µM (inactive) | > 10 | > 10 µM (inactive) | > 10 µM (inactive) | > 10 µM (inactive) | > 10 µM (inactive) | > 10 µM (inactive) | > 10 µM (inactive) | > 10 µM (inactive) | > 10 µM (inactive) | > 10 µM (inactive) | > 10 µM (inactive) | > 10 µM (inactive) | > 10 µM (inactive) | > 10 µM (inactive) |  | > 10 µM (inactive) | > 10 µM (inactive)
CN(CCS(=O)(=O)N1C(=O)C2CCCN2C(=O)[C@@H]1Cc1ccccc1)C(=O)OCc1ccccc1 (some centres not stated) | 26.2 µM (inactive) | 61.1 µM (inactive) | 48 µM (inactive) | 58.6 | 28.3 µM (inactive) | 33 µM (inactive) | 62.2 µM (inactive) |  | 73.3 µM (inactive) | 91.6 µM (inactive) | 41.6 µM (inactive) | > 100 µM (inactive) | 53.2 µM (inactive) | > 100 µM (inactive) | 33.4 µM (inactive) |  | 47.4 µM (inactive) |  | 44.4 µM (inactive) | 40.2 µM (inactive)
COC(=O)c1ccc(Oc2nc3ccccc3nc2-c2cccs2)cc1 |  | 21.3 µM (inactive) | 26.1 µM (inactive) | 75.5 | 71.3 µM (inactive) | > 100 µM (inactive) | 18.7 µM (inactive) | > 100 µM (inactive) | 26.7 µM (inactive) | > 100 µM (inactive) | 27.5 µM (inactive) | 5.71 µM (inactive) | 23.6 µM (inactive) | 11.9 µM (inactive) | > 10 µM (inactive) | 44.9 µM (inactive) | > 100 µM (inactive) | 64.1 µM (inactive) | 43.4 µM (inactive) | 
CN(C)CCN(C)CCC(=O)/C=C/c1ccccc1 | 25.5 µM (inactive) | 30.5 µM (inactive) | > 71.6 µM (inactive) | 21.8 | 29.5 µM (inactive) | 3.48 µM (inactive) | > 40.4 µM (inactive) |  | 25.9 µM (inactive) | 19 µM (inactive) | > 93.3 µM (inactive) | 19.1 µM (inactive) | 27.1 µM (inactive) | > 100 µM (inactive) | 12.7 µM (inactive) |  | 20.8 µM (inactive) |  | 22.7 µM (inactive) | > 45.5 µM (inactive)
Cn1c2ccccc2n2c3ccccc3c(=S)c(C#N)c12 |  | > 100 µM (inactive) | > 100 µM (inactive) | > 100 | > 100 µM (inactive) | > 100 µM (inactive) | > 100 µM (inactive) | > 100 µM (inactive) | > 100 µM (inactive) |  | > 100 µM (inactive) | > 100 µM (inactive) | > 100 µM (inactive) | 53.1 µM (inactive) | > 100 µM (inactive) | > 100 µM (inactive) | > 100 µM (inactive) | > 100 µM (inactive) | > 100 µM (inactive) | > 100 µM (inactive)
C/C(=C\COP(=O)(O)CP(=O)(O)O)CC/C=C(\C)CNc1ccccc1 |  | > 100 µM (inactive) | > 100 µM (inactive) | > 100 | > 100 µM (inactive) | > 100 µM (inactive) | > 100 µM (inactive) | > 100 µM (inactive) | > 100 µM (inactive) | > 100 µM (inactive) | > 100 µM (inactive) | > 100 µM (inactive) | 6.28 µM (inactive) | > 100 µM (inactive) | > 100 µM (inactive) | > 100 µM (inactive) | > 100 µM (inactive) | > 100 µM (inactive) | > 100 µM (inactive) | 
CC(=O)OC(C)(C)[C@@H]1CC[C@]2(C)/C=C/[C@H](C)C[C@@H](O)C3=C(C)C[C@@H](O3)C12 (some centres not stated) | > 100 µM (inactive) | > 100 µM (inactive) | > 100 µM (inactive) | > 100 | > 100 µM (inactive) | > 100 µM (inactive) | > 100 µM (inactive) |  | > 100 µM (inactive) | > 100 µM (inactive) | > 100 µM (inactive) | > 100 µM (inactive) | > 100 µM (inactive) | > 100 µM (inactive) | > 100 µM (inactive) |  | > 100 µM (inactive) |  | > 100 µM (inactive) | > 100 µM (inactive)
CN(C)c1ccc(/C=C2\CCCCCC2=O)cc1 |  | > 100 µM (inactive) | > 100 µM (inactive) |  | 58.7 µM (inactive) | > 100 µM (inactive) | > 100 µM (inactive) | > 100 µM (inactive) | > 100 µM (inactive) | > 100 µM (inactive) | > 100 µM (inactive) | > 100 µM (inactive) |  | 66.7 µM (inactive) | > 100 µM (inactive) | 65 µM (inactive) | > 100 µM (inactive) | > 100 µM (inactive) | > 100 µM (inactive) | > 100 µM (inactive)
O=C(O)/C=C(/CC(=O)O)C(=O)O |  | 19 µM (inactive) | 18.6 µM (inactive) | 22.7 | 18.1 µM (inactive) | 13.6 µM (inactive) | 18.1 µM (inactive) | 18.3 µM (inactive) | 23.2 µM (inactive) | 19.4 µM (inactive) | 22.2 µM (inactive) | 12.3 µM (inactive) | 23.2 µM (inactive) | 16.7 µM (inactive) | 19.2 µM (inactive) | 19.6 µM (inactive) | 21.8 µM (inactive) | 21 µM (inactive) | 20.6 µM (inactive) | 30.8 µM (inactive)
